The record followed here is patent US20240408093A1, “HETEROBIFUNCTIONAL COMPOUNDS AND THEIR USE IN TREATING DISEASE” (HALDA THERAPEUTICS OPCO, INC., priority 2022, published 2024).

Where only a bound is given, the exact number is not on record here.

Experiment [1] deals with T1, GSPT1 (Homo sapiens, UniProt P15170+Q96SW2).
T1 construct: host or cells: HEK293 LgBiT / GSPT1 HiBiT CRISPR knock-in
Kind of experiment: GSPT1 HiBiT degradation assay. Type of experiment: cell-based. The settings on record: HEK293 LgBiT GSPT1 HiBiT cells, 6 hours. In short, it runs like this:
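HEK293 CRISPR knock-in cells expressing LgBiT and GSPT1-HiBiT were seeded at 1000 cells/well and, after 18-24 h, treated with titrated compound plus endurazine (0.5× final) at 37 °C. Luminescence read after 6 h; loss of signal reflects GSPT1 degradation, giving DC50.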
A general note: With HiBiT, luminescence reflects the tagged protein that the partner subunit can reach.

The subject of experiment [2] is HeLa cells (ATCC CCL-2). The experiment can be described thus: Cellular growth inhibition assay, HeLa cells (Example 16). Type of experiment: cell-based. The settings on record: Homo sapiens, 72 hours, CellTiter-Glo 2.0. In general terms: In ATP-based viability assays light output follows the ATP content of the culture.
Experiment [3] concerns HEK293 cells (ATCC CRL-1573). Kind of experiment: Cellular growth inhibition assay, HEK293 cells (Example 16). To be noted: Homo sapiens, 72 hours, CellTiter-Glo 2.0. Format: cell-based.
The target in experiment [4] is KRAS G12C (Homo sapiens, UniProt P01116, G12C). Kind of experiment: KRAS G12C nucleotide exchange assay (SOS1-mediated, HTRF). Type of experiment: biochemical. To be noted: 1 hr pre-incubation. More on the design: GST-tagged KRAS G12C (amino acids 2-169). The method in brief: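 GST-tagged KRAS G12C (aa 2-169, 30 nM) pre-incubated 1 h at RT with compound (10-point, 3-fold dilution from 10 μM), then SOS1 (aa 564-1049, 20 nM) and GTP-DY-647P1 (0.15 μM) added. Exchange read by HTRF with anti-GST Tb antibody. IC50 from sigmoidal variable-slope fit.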
Sequence of KRAS G12C (P01116 2-169 isoform P01116-2 G12C): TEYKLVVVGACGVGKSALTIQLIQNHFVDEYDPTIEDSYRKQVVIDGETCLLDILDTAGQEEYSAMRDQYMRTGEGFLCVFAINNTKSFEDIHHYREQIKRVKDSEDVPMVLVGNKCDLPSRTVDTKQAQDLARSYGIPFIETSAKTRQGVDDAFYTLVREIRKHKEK

T1 sequence (P15170 whole entry): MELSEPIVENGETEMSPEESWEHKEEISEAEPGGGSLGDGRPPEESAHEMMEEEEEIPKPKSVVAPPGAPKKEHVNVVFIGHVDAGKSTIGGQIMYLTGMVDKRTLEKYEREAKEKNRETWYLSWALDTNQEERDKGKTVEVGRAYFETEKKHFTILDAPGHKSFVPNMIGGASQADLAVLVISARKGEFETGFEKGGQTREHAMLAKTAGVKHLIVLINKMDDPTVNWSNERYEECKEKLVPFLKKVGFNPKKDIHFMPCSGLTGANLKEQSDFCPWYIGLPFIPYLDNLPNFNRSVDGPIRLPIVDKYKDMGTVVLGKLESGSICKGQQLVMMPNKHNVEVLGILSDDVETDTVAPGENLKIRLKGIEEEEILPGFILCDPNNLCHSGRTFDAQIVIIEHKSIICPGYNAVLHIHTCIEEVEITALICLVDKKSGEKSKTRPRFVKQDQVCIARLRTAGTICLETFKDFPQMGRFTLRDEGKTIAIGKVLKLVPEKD
T1 sequence (Q96SW2 whole entry): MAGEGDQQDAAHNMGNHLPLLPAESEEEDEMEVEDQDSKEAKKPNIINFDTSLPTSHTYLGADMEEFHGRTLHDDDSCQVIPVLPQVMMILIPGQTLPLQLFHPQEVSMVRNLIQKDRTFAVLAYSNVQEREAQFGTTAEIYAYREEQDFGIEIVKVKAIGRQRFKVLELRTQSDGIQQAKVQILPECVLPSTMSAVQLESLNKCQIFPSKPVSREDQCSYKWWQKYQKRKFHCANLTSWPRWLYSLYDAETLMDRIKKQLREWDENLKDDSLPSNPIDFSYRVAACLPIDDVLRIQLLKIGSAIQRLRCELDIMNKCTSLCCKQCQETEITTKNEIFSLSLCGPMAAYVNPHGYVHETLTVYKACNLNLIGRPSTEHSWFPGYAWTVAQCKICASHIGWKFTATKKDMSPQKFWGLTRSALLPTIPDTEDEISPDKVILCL
T1 sequence (Q16531 whole entry partner): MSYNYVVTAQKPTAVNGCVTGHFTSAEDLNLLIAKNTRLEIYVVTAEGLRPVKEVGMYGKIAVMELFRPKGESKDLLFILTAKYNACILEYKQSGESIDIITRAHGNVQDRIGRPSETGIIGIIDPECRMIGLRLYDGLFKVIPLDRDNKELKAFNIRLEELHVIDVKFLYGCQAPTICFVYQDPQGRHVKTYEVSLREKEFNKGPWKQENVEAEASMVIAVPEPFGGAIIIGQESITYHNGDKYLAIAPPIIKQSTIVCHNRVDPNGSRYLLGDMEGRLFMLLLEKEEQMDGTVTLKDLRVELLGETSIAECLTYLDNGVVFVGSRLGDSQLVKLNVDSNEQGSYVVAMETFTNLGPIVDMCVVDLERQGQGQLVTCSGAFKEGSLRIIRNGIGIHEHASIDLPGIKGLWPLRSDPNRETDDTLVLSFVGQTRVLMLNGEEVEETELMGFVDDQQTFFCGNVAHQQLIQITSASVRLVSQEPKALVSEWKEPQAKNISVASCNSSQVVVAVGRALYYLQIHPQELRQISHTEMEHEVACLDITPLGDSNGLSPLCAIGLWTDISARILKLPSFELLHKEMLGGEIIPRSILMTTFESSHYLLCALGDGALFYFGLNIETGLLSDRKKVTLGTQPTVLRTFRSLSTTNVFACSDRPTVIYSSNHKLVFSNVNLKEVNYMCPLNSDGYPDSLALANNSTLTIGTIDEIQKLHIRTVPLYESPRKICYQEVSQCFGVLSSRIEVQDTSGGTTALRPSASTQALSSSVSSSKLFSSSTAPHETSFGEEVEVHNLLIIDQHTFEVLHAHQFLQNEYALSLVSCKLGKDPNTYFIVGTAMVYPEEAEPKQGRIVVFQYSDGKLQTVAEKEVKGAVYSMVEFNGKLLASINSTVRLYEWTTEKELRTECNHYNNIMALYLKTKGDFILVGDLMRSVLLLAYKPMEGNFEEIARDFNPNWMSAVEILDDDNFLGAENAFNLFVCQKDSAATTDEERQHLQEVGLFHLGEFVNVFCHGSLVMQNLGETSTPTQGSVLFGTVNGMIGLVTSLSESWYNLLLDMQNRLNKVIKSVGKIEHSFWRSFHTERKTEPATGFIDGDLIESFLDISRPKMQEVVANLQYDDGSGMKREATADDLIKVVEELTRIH

For orientation: DC50 means the concentration giving 50% degradation. Higher therefore signals a less potent degrader. Usually GI50 stands for the concentration giving 50% growth inhibition. The term IC50 denotes the concentration needed to halve the response being measured. Lower therefore signals inhibition by little substance. In experiment [1], `C=C(COc1cc(Cl)cc(NC(=O)NCc2ccc3c(c2F)CN(C2CCC(=O)NC2=O)C3=O)c1)C(=O)N1CCN(c2nc(OC[C@@H]3CCCN3C)nc3c2CCN(c2cccc4cccc(Cl)c24)C3)C[C@@H]1CC#N` (stereo partly shown) [Compound I-116] registered a DC50 of 0.5 to 2.5 µM. Moreover, the GI50 in experiment [2] is greater than 10 µM; in experiment [3], 1.5 to 10 µM. This compound also came in with an IC50 in experiment [4] of less than 0.1 µM.
